# Assay results reported in patent US8952024B2, “Herbicidal pyrimidone derivatives” (E I du Pont de Nemours and Company, priority 2009, dated 2015).
# Where two headings read alike, the source gives them in different places.
# Columns and labels:
# Type in all cases: in vivo
# [1] = tested on: Italian ryegrass (Lolium multiflorum); assay: Test B pre-/postemergence plant response; details: for pest or weed control at 125 g/ha: 125 g ai/ha
# Summary of the method: (§1)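 Plants treated either at seeding (loam/sand soil) or postemergence at 2 to 18 cm height, using a surfactant-containing non-phytotoxic solvent formulation. Evaluation was visual after 13 to 15 days, 0 to 100 scale relative to controls.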
# [2] = tested on: galium (catchweed bedstraw, Galium aparine); assay: Test B pre-/postemergence plant response; details: Preemergence
# Summary of the method: as §1
# [3] = tested on: giant foxtail (Setaria faberii); assay: Test B pre-/postemergence plant response; details: for pest or weed control at 31 g/ha: 31 g ai/ha; for pest or weed control at 125 g/ha: 125 g ai/ha
# Summary of the method: as §1
# [4] = tested on: nightshade (eastern black nightshade, Solanum ptycanthum); assay: Test B pre-/postemergence plant response; details: Preemergence
# Summary of the method: as §1
# [5] = tested on: ragweed (common ragweed, Ambrosia elatior); assay: Test B pre-/postemergence plant response; details: for pest or weed control at 125 g/ha: 125 g ai/ha
# Summary of the method: as §1
# [6] = tested on: sunflower (common oilseed sunflower, Helianthus annuus); assay: Test B pre-/postemergence plant response; details: Preemergence
# Summary of the method: as §1
# [7] = tested on: canarygrass (Phalaris minor); assay: Test B postemergence plant response
# Summary of the method: (§2)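 Plants at the 1- to 4-leaf stage (2 to 18 cm tall), grown in pots of peat moss/vermiculite medium with wetting agent and starter nutrients, received postemergence applications of test chemicals. After 13 to 15 days in a greenhouse, injury was rated visually against untreated controls on a 0 (no effect) to 100 (complete control) scale.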
# [8] = tested on: chickweed (Stellaria media); assay: Test B postemergence plant response
# Summary of the method: as §2
# [9] = tested on: windgrass (Apera spica-venti); assay: Test B postemergence plant response
# Summary of the method: as §2
# [10] = tested on: winter barley (Hordeum vulgare); assay: Test B postemergence plant response
# Summary of the method: as §2
# [11] = tested on: barnyardgrass (Echinochloa crus-galli); assay: Test B flooded paddy test; details: Echinochloa crus-galli, 360 h
# Summary of the method: (§3)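 Visual scores run from 0 (no effect) to 100 (complete control), assigned by comparison with controls 13 to 15 days after treatment. Test compounds went straight into water standing 3 cm above the soil, around plants at the 2-leaf stage kept in a greenhouse.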
# [12] = tested on: ducksalad (Heteranthera limosa); assay: Test B flooded paddy test; details: Heteranthera limosa, 360 h
# Summary of the method: as §3
# rice (Oryza sativa) = assay: Test B flooded paddy test; details: Oryza sativa
# Summary of the method: as §3
# [13] = tested on: umbrella sedge (Cyperus difformis); assay: Test B flooded paddy test; details: Cyperus difformis, 360 h
# Summary of the method: as §3
# [14] = 62 g ai/ha, postemergence, 0 is no effect, 100 is complete control, 13 to 15 days
# [15] = Preemergence, 250 g ai/ha, 0 to 100 scale
# [16] = 31 g ai/ha, scale 0 to 100 (0 no effect, 100 complete control)
# [17] = 62 g ai/ha, scale 0 to 100, 0 no effect, 100 complete control
# [18] = 125 g ai/ha, scale 0 to 100, 0 no effect, 100 complete control
compound,measurement,setting,value
"O=C1CCCC(O)=C1C(=O)c1cnc(-c2cccnc2)n(-c2ccccc2)c1=O [Compound 113, 5-[(2-hydroxy-6-oxo-1-cyclohexen-1-yl)carbonyl]-3-phenyl-2-(3-pyridinyl)-4(3H)-pyrimidone]","Ryegrass, Italian plant response rating (0 to 100 scale)",[1]; [14],45
same,pest or weed control at 125 g/ha,"[1]; Lolium multiflorum, post-emergence, Postemergence, scale 0 to 100 (0 no effect, 100 complete control), read-out: Plant response rating, Ryegrass, Italian",50%
same,pest or weed control at 250 g/ha,"[1]; Lolium multiflorum, post-emergence, Postemergence, 250 g ai/ha, scale 0 to 100 (0 no effect, 100 complete control), read-out: Plant response rating, Ryegrass, Italian",85%
same,pest or weed control at 31 g/ha,"[1]; Lolium multiflorum, pre-emergence, Preemergence, 31 g ai/ha, scale 0 to 100 (0 no effect, 100 complete control), read-out: Plant response rating, Ryegrass, Italian",0%
same,pest or weed control at 62 g/ha,"[1]; Lolium multiflorum, pre-emergence, Preemergence, 62 g ai/ha, scale 0 to 100 (0 no effect, 100 complete control), read-out: Plant response rating, Ryegrass, Italian",5%
same,pest or weed control at 125 g/ha,"[1]; Lolium multiflorum, pre-emergence, Preemergence, scale 0 to 100, 0 no effect, 100 complete control, read-out: Plant response rating, Ryegrass, Italian",5%
same,"Ryegrass, Italian plant response rating",[1]; [15],40
same,"Plant response rating, Galium",[2]; [16],50
same,"Plant response rating, Galium",[2]; [17],70
same,"Plant response rating, Galium",[2]; [18],85
same,Galium plant response rating,"[2]; 250 g ai/ha, 0 to 100 scale",95
same,"Foxtail, Giant plant response rating (0 to 100 scale)",[3]; [14],85
same,"Foxtail, Giant plant response rating",[3]; [15],85
same,pest or weed control at 31 g/ha,"[3]; Setaria faberi, post-emergence, postemergence, scale 0 to 100, 0 is no effect, 100 is complete control, read-out: Plant response rating, Foxtail, Giant",80%
same,pest or weed control at 125 g/ha,"[3]; Setaria faberi, post-emergence, Postemergence, scale 0 to 100 (0 no effect, 100 complete control), read-out: Plant response rating, Foxtail, Giant",90%
same,pest or weed control at 250 g/ha,"[3]; Setaria faberi, post-emergence, Postemergence, 250 g ai/ha, scale 0 to 100 (0 no effect, 100 complete control), read-out: Plant response rating, Foxtail, Giant",95%
same,pest or weed control at 31 g/ha,"[3]; Setaria faberi, pre-emergence, Preemergence, scale 0 to 100 (0 no effect, 100 complete control), read-out: Plant response rating, Foxtail, Giant",5%
same,pest or weed control at 62 g/ha,"[3]; Setaria faberi, pre-emergence, Preemergence, 62 g ai/ha, scale 0 to 100, 0 no effect, 100 complete control, read-out: Plant response rating, Foxtail, Giant",40%
same,pest or weed control at 125 g/ha,"[3]; Setaria faberi, pre-emergence, Preemergence, scale 0 to 100, 0 no effect, 100 complete control, read-out: Plant response rating, Foxtail, Giant",60%
same,"Plant response rating, Nightshade",[4]; [16],98
same,"Plant response rating, Nightshade",[4]; [17],98
same,"Plant response rating, Nightshade",[4]; [18],100
same,Nightshade plant response rating,"[4]; 250 g ai/ha, 0 to 100 scale",100
same,Ragweed plant response rating (0 to 100 scale),[5]; [14],95
same,pest or weed control at 125 g/ha,"[5]; Ambrosia artemisiifolia, post-emergence, 360 h, Postemergence, scale 0 to 100 (0 no effect, 100 complete control), read-out: Plant response rating, Ragweed",98%
same,pest or weed control at 250 g/ha,"[5]; Ambrosia artemisiifolia, post-emergence, 360 h, Postemergence, 250 g ai/ha, scale 0 to 100 (0 no effect, 100 complete control), read-out: Plant response rating, Ragweed",98%
same,pest or weed control at 31 g/ha,"[5]; Ambrosia artemisiifolia, pre-emergence, 360 h, Preemergence, 31 g ai/ha, scale 0 to 100 (0 no effect, 100 complete control), read-out: Plant response rating, Ragweed",55%
same,pest or weed control at 62 g/ha,"[5]; Ambrosia artemisiifolia, pre-emergence, 360 h, Preemergence, 62 g ai/ha, scale 0 to 100 (0 no effect, 100 complete control), read-out: Plant response rating, Ragweed",90%
same,pest or weed control at 125 g/ha,"[5]; Ambrosia artemisiifolia, pre-emergence, 360 h, Preemergence, scale 0 to 100, 0 no effect, 100 complete control, read-out: Plant response rating, Ragweed",95%
same,Ragweed plant response rating,[5]; [15],98
same,"Plant response rating, Sunflower",[6]; [16],75
same,"Plant response rating, Sunflower",[6]; [17],80
same,"Plant response rating, Sunflower",[6]; [18],90
same,Sunflower plant response rating,"[6]; 250 g ai/ha, 0 to 100 scale",95
same,Canarygrass plant response rating (0 to 100 scale),[7]; [14],90
same,pest or weed control at 31 g/ha,"[7]; Phalaris minor, post-emergence, 360 h, 31 g ai/ha, postemergence, scale 0 to 100, 0 is no effect, 100 is complete control, read-out: Plant response rating, Canarygrass",65%
same,pest or weed control at 250 g/ha,"[7]; Phalaris minor, post-emergence, 360 h, Postemergence, 250 g ai/ha, scale 0 to 100 (0 no effect, 100 complete control), read-out: Plant response rating, Canarygrass",90%
same,Chickweed plant response rating (0 to 100 scale),[8]; [14],98
same,pest or weed control at 31 g/ha,"[8]; Stellaria media, post-emergence, 360 h, 31 g ai/ha, postemergence, scale 0 to 100, 0 is no effect, 100 is complete control, read-out: Plant response rating, Chickweed",98%
same,pest or weed control at 125 g/ha,"[8]; Stellaria media, post-emergence, 360 h, Postemergence, 125 g ai/ha, scale 0 to 100 (0 no effect, 100 complete control), read-out: Plant response rating, Chickweed",100%
same,pest or weed control at 250 g/ha,"[8]; Stellaria media, post-emergence, 360 h, Postemergence, 250 g ai/ha, scale 0 to 100 (0 no effect, 100 complete control), read-out: Plant response rating, Chickweed",100%
same,Windgrass plant response rating (0 to 100 scale),[9]; [14],30
same,pest or weed control at 125 g/ha,"[9]; Apera spica-venti, post-emergence, 360 h, Postemergence, 125 g ai/ha, scale 0 to 100 (0 no effect, 100 complete control), read-out: Plant response rating, Windgrass",35%
same,Barley plant response rating (0 to 100 scale),[10]; [14],5
same,plant injury at 31 g/ha,"[10]; Hordeum vulgare, post-emergence, 31 g ai/ha, postemergence, scale 0 to 100, 0 is no effect, 100 is complete control, read-out: Plant response rating, Barley",0%
same,plant injury at 125 g/ha,"[10]; Hordeum vulgare, post-emergence, Postemergence, 125 g ai/ha, scale 0 to 100 (0 no effect, 100 complete control), read-out: Plant response rating, Barley",5%
same,plant injury at 250 g/ha,"[10]; Hordeum vulgare, post-emergence, Postemergence, 250 g ai/ha, scale 0 to 100 (0 no effect, 100 complete control), read-out: Plant response rating, Barley",20%
same,pest or weed control at 250 g/ha,"[11]; 250 g ai/ha, flooded paddy test, visual rating on 0 to 100 scale (0 no effect, 100 complete control) after 13 to 15 days, read-out: Plant response rating, Flood, Barnyardgrass",15%
same,pest or weed control at 62 g/ha,"[11]; Flood (flooded paddy test), 62 g ai/ha, scale of 0 to 100 where 0 is no effect and 100 is complete control, 13 to 15 days, read-out: Plant response rating, Barnyardgrass",10%
same,pest or weed control at 250 g/ha,"[12]; 250 g ai/ha, flooded paddy test, visual rating on 0 to 100 scale (0 no effect, 100 complete control) after 13 to 15 days, read-out: Plant response rating, Flood, Ducksalad",70%
same,pest or weed control at 62 g/ha,"[12]; Flood (flooded paddy test), 62 g ai/ha, scale of 0 to 100 where 0 is no effect and 100 is complete control, 13 to 15 days, read-out: Plant response rating, Ducksalad",25%
same,plant injury at 250 g/ha,"rice (Oryza sativa); 250 g ai/ha, flooded paddy test, visual rating on 0 to 100 scale (0 no effect, 100 complete control) after 13 to 15 days, read-out: Plant response rating, Flood, Rice",0%
same,plant injury at 62 g/ha,"rice (Oryza sativa); Flood (flooded paddy test), 62 g ai/ha, scale of 0 to 100 where 0 is no effect and 100 is complete control, 13 to 15 days, read-out: Plant response rating, Rice",0%
same,pest or weed control at 250 g/ha,"[13]; 250 g ai/ha, flooded paddy test, visual rating on 0 to 100 scale (0 no effect, 100 complete control) after 13 to 15 days, read-out: Plant response rating, Flood, Sedge, Umbrella",70%
same,pest or weed control at 62 g/ha,"[13]; Flood (flooded paddy test), 62 g ai/ha, scale of 0 to 100 where 0 is no effect and 100 is complete control, 13 to 15 days, read-out: Plant response rating, Sedge, Umbrella",40%
